Measured values from ChEMBL document CHEMBL3885861, “Open TG-GATES”.

Organism: Rattus norvegicus
Assay: Open TG-GATES - Regimen: Single
Assay type: toxicity, organism-based, Sprague-Dawley
Set-up: regimen Single, gender Male, age 6 weeks
Settings: in vivo, po, 100 mg/kg, route gavage, dose level High; for APTT / Bas / Eos / Fbg / Hb / Ht / Lym / MCH / MCHC / MCV / Mono / Neu / PT / Plat / RBC / Ret / WBC: tissue Blood; for KIDNEY_L / KIDNEY_R / KIDNEY_TOTAL: tissue Kidney; for LIVER: tissue Liver; for A/G / ALP / ALT / AST / BUN / CRE / Ca / Cl / DBIL / GLC / IP / K / LDH / Na / PL / RALB / TBIL / TC / TG / TP / gamma-GTP: tissue Plasma

CC1=C(/C=C/C(C)=C/C=C/C(C)=C/CO)C(C)(C)CCC1 [RETINOL]
TERMINAL_BW (3 h): 201.1 g
APTT (3 h): 21.6 s
Bas (3 h): 0%
Eos (3 h): 1%
Fbg (3 h): 312.4 mg/dL
Hb (3 h): 13.3 g/dL
Ht (3 h): 38.7%
Lym (3 h): 77.2%
MCH (3 h): 21.4 pg
MCHC (3 h): 34.5%
MCV (3 h): 62 fL
Mono (3 h): 2.6%
Neu (3 h): 19%
PT (3 h): 15.7 s
Plat (3 h): 117.7 x10_4/uL
RBC (3 h): 625.8 x10_4/ul
Ret (3 h): 8%
WBC (3 h): 79.7 x10_2/uL
KIDNEY_L (3 h): 0.9 g
KIDNEY_R (3 h): 0.9 g
KIDNEY_TOTAL (3 h): 1.8 g
LIVER (3 h): 9.1 g
A/G (3 h): 1.4
ALP (3 h): 1910.2 IU/L
ALT (3 h): 46 IU/L
AST (3 h): 77 IU/L
BUN (3 h): 13.6 mg/dL
CRE (3 h): 0.2 mg/dL
Ca (3 h): 11 mg/dL
Cl (3 h): 106.2 meq/L
DBIL (3 h): 0 mg/dL
GLC (3 h): 182 mg/dL
IP (3 h): 9.4 mg/dL
K (3 h): 4 meq/L
LDH (3 h): 219.2 IU/L
Na (3 h): 141.2 meq/L
PL (3 h): 157.4 mg/dL
RALB (3 h): 3.2 g/dL
TBIL (3 h): 0.006 mg/dL
TC (3 h): 77 mg/dL
TG (3 h): 153 mg/dL
TP (3 h): 5.6 g/dL
gamma-GTP (3 h): 1.6 IU/L
TERMINAL_BW (6 h): 205.2 g
APTT (6 h): 20.3 s
Bas (6 h): 0%
Eos (6 h): 1%
Fbg (6 h): 292.8 mg/dL
Hb (6 h): 13.2 g/dL
Ht (6 h): 38.6%
Lym (6 h): 73.8%
MCH (6 h): 21.1 pg
MCHC (6 h): 34.2%
MCV (6 h): 61.8 fL
Mono (6 h): 4.8%
Neu (6 h): 19.8%
PT (6 h): 15 s
Plat (6 h): 120.3 x10_4/uL
RBC (6 h): 625.6 x10_4/ul
Ret (6 h): 7.8%
WBC (6 h): 110 x10_2/uL
KIDNEY_L (6 h): 0.9 g
KIDNEY_R (6 h): 0.9 g
KIDNEY_TOTAL (6 h): 1.8 g
LIVER (6 h): 9 g
A/G (6 h): 1.3
ALP (6 h): 1660.6 IU/L
ALT (6 h): 37.6 IU/L
AST (6 h): 74 IU/L
BUN (6 h): 10.6 mg/dL
CRE (6 h): 0.1 mg/dL
Ca (6 h): 11.3 mg/dL
Cl (6 h): 105.8 meq/L
DBIL (6 h): 0.006 mg/dL
GLC (6 h): 190.4 mg/dL
IP (6 h): 10.6 mg/dL
K (6 h): 4.3 meq/L
LDH (6 h): 212.4 IU/L
Na (6 h): 141.8 meq/L
PL (6 h): 147.8 mg/dL
RALB (6 h): 3.1 g/dL
TBIL (6 h): 0.016 mg/dL
TC (6 h): 71.8 mg/dL
TG (6 h): 118 mg/dL
TP (6 h): 5.4 g/dL
gamma-GTP (6 h): 1 IU/L
TERMINAL_BW (9 h): 198.4 g
APTT (9 h): 21.5 s
Bas (9 h): 0%
Eos (9 h): 0.8%
Fbg (9 h): 288.4 mg/dL
Hb (9 h): 12.8 g/dL
Ht (9 h): 36.9%
Lym (9 h): 72.4%
MCH (9 h): 21.3 pg
MCHC (9 h): 34.7%
MCV (9 h): 61.4 fL
Mono (9 h): 3.2%
Neu (9 h): 22.6%
PT (9 h): 15.5 s
Plat (9 h): 124.3 x10_4/uL
RBC (9 h): 601 x10_4/ul
Ret (9 h): 7.6%
WBC (9 h): 96.3 x10_2/uL
KIDNEY_L (9 h): 0.9 g
KIDNEY_R (9 h): 0.9 g
KIDNEY_TOTAL (9 h): 1.9 g
LIVER (9 h): 8.8 g
A/G (9 h): 1.4
ALP (9 h): 1745.2 IU/L
ALT (9 h): 35.2 IU/L
AST (9 h): 69.2 IU/L
BUN (9 h): 9.6 mg/dL
CRE (9 h): 0.1 mg/dL
Ca (9 h): 11 mg/dL
Cl (9 h): 106.4 meq/L
DBIL (9 h): 0.014 mg/dL
GLC (9 h): 179.6 mg/dL
IP (9 h): 10.7 mg/dL
K (9 h): 4.3 meq/L
LDH (9 h): 219.6 IU/L
Na (9 h): 141.2 meq/L
PL (9 h): 129.2 mg/dL
RALB (9 h): 3.1 g/dL
TBIL (9 h): 0.016 mg/dL
TC (9 h): 65.6 mg/dL
TG (9 h): 91.2 mg/dL
TP (9 h): 5.3 g/dL
gamma-GTP (9 h): 1 IU/L
TERMINAL_BW (24 h): 207.3 g
APTT (24 h): 23.2 s
Bas (24 h): 0%
Eos (24 h): 0.8%
Fbg (24 h): 303.6 mg/dL
Hb (24 h): 13.3 g/dL
Ht (24 h): 38.7%
Lym (24 h): 79.2%
MCH (24 h): 21.2 pg
MCHC (24 h): 34.3%
MCV (24 h): 61.9 fL
Mono (24 h): 2.2%
Neu (24 h): 16.8%
PT (24 h): 16 s
Plat (24 h): 117.6 x10_4/uL
RBC (24 h): 627 x10_4/ul
Ret (24 h): 7.3%
WBC (24 h): 93.1 x10_2/uL
KIDNEY_L (24 h): 0.9 g
KIDNEY_R (24 h): 0.9 g
KIDNEY_TOTAL (24 h): 1.8 g
LIVER (24 h): 9.6 g
A/G (24 h): 1.2
ALP (24 h): 1815.8 IU/L
ALT (24 h): 47.2 IU/L
AST (24 h): 79 IU/L
BUN (24 h): 14.2 mg/dL
CRE (24 h): 0.2 mg/dL
Ca (24 h): 10.8 mg/dL
Cl (24 h): 106.2 meq/L
DBIL (24 h): 0.004 mg/dL
GLC (24 h): 193.4 mg/dL
IP (24 h): 7.4 mg/dL
K (24 h): 4 meq/L
LDH (24 h): 242.4 IU/L
Na (24 h): 140.2 meq/L
PL (24 h): 144 mg/dL
RALB (24 h): 3 g/dL
TBIL (24 h): 0.006 mg/dL
TC (24 h): 68.8 mg/dL
TG (24 h): 155.2 mg/dL
TP (24 h): 5.5 g/dL
gamma-GTP (24 h): 1.8 IU/L
